Measured values: publication PMC11062899, “De novo development of small cyclic peptides that are orally bioavailable” (Nature Chemical Biology, 2023)
Values joined by “and” are separate entries in the source; they are usually repeats but may differ in a detail not shown here. Identical values can stand only once. Like-named read-outs stand apart in the source and are kept apart here.

Tests used:
human α-thrombin = human α-thrombin (Homo sapiens, UniProt P00734); assay: Protease inhibition, Ki for human α-thrombin (fluorogenic substrate Z-Gly-Gly-Arg-AMC); format: biochemical; conditions: human alpha thrombin; for Slope normalized to DMSO (proteolytic substrate cleavage over time): replicates R1-R3
How it was run: (§1)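 Ki derived through Cheng–Prusoff from IC50s (four-parameter logistic fit) against activity of peptide-free controls. Product fluorescence was read every 3 min over 30 min at 25 °C, substrate Z-Gly-Gly-Arg-AMC at 50 μM. Enzyme was 2 nM human or 3 nM rat α-thrombin, pH 7.4 buffer.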

rat α-thrombin = biological target: T1, rat α-thrombin (Rattus norvegicus, UniProt P18292); assay: Protease inhibition, Ki for rat α-thrombin (fluorogenic substrate Z-Gly-Gly-Arg-AMC); format: biochemical; conditions: rat alpha thrombin; for Slope normalized to DMSO (proteolytic substrate cleavage over time): replicates R1-R3
T1 construct: rat α-thrombin (Molecular Innovations) were used at final concentrations of 2 nM and 3 nM; purchased Molecular Innovations
How it was run: as §1

porcine pepsin = biological target: T2, porcine pepsin (Sus scrofa, UniProt P00791); assay: Peptide stability in simulated gastric fluid (SGF); format: in vitro ADME
T2 construct: 0.32 g of porcine pepsin (Sigma-Aldrich, P7125) was dissolved under gentle agitation; purchased Sigma-Aldrich P7125
How it was run: (§2)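 Peptide from a 1 mM DMSO stock was added to fluid pre-warmed at 37 °C. SGF was pH 1.2 NaCl with porcine pepsin (0.32 g per 100 ml), and SIF was pH 6.8 potassium phosphate with porcine pancreatin (1 g per 100 ml). Supernatant peptide was quantified by LC–MS, with residual expressed as T1/T0.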

[1] = Peptide stability in simulated intestinal fluid (SIF); format: in vitro ADME, porcine; conditions: simulated gi fluid; 8 h, 37 °C, pH 6.8; read-out: Proteolytic stability: SIF (8 h) % remaining
How it was run: as §2

porcine pancreatin = assay: as above; format: in vitro ADME; conditions: after 8 h vs 0 h (TIC)
How it was run: as §2

[2] = Passive artificial membrane permeability (PAMPA)
Experimental: The plate system consisted of a 96-well microwell plate (donor wells) and a 96-well insert containing a PVDF membrane coated with tri-layers of phospholipids (acceptor wells). Permeability was measured from the bottom plate (donor wells) to the top insert (acceptor wells). Cyclic peptide or reference compound solutions were prepared at a concentration of 50 μM in PBS buffer (pH 7.4) containing 5% DMSO, and 300 μl of the resulting solutions was placed into the donor wells of the PAMPA plate. Acceptor wells were prepared by adding 200 μl of PBS buffer (pH 7.4) containing 5% DMSO. The insert was stacked onto the donor plate, and the system was covered with a lid to avoid evaporation. […] Additionally, 3:2 dilutions of the 50 μM cyclic peptide stocks were prepared in PBS buffer (pH 7.4) containing 5% DMSO to yield a sample corresponding to the theoretical equilibrium between donor and acceptor wells. The samples were run on the LC–MS to measure the cyclic peptide concentration representing maximum permeability. Permeability percent was calculated using equation (4) below.4 Permeability%=PeptideAcceptor/PeptideEquilibrated×100 where [PeptideAcceptor] represents the AUC measured on the LC–MS for the acceptor wells, and [PeptideEquilibrated] represents the AUC measured for the samples diluted to the theoretical equilibrium. Detection limit for the assay was typically at 1% permeability.
Papp values were calculated using equation (5).5 Papp=VD×VA/VD+VA×A×t×−ln1−PeptideAcceptor/PeptideEquilibrated where VD and VA are the volumes of donor and acceptor wells, respectively; A is the area of the membrane; and t is the incubation time.

T2 sequence (P00791 60-385): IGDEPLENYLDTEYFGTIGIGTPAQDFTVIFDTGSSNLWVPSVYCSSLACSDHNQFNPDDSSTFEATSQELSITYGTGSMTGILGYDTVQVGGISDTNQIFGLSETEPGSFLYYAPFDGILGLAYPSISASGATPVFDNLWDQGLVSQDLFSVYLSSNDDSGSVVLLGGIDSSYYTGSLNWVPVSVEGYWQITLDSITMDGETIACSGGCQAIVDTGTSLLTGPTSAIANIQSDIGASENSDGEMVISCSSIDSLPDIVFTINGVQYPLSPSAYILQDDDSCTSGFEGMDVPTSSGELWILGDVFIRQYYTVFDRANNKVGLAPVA

O=C1C[C@H]2CCCN2C(=O)[C@H](Cc2ccccc2)NC(=O)[C@@H](NC(=O)c2ccc(Cl)s2)CCSC/C=C/CSCCN1 [compound 34]
Ki (human α-thrombin; average of R1-R3, read-out: Ki Average, human alpha thrombin inhibition): 21 nM | Slope normalized to DMSO (proteolytic substrate cleavage over time) (human α-thrombin; peptide 1.02E-03 uM): 77.8 and 82.6 and 87.7 | Slope normalized to DMSO (proteolytic substrate cleavage over time) (human α-thrombin; peptide 1.27E-04 uM): 85.2 and 86.3 and 97.5 | Slope normalized to DMSO (proteolytic substrate cleavage over time) (human α-thrombin; peptide 1.30E-01 uM): 23.7 and 29.7 and 31.1 | Slope normalized to DMSO (proteolytic substrate cleavage over time) (human α-thrombin; peptide 1.59E-05 uM): 99.4 and 93.2 and 99.6 | Slope normalized to DMSO (proteolytic substrate cleavage over time) (human α-thrombin; peptide 1.63E-02 uM): 62.9 (2×) and 53.3 | Slope normalized to DMSO (proteolytic substrate cleavage over time) (human α-thrombin; peptide 2.03E-03 uM): 91.1 and 82.2 and 86.6 | Slope normalized to DMSO (proteolytic substrate cleavage over time) (human α-thrombin; peptide 2.54E-04 uM): 95.6 and 96.7 and 91.7 | Slope normalized to DMSO (proteolytic substrate cleavage over time) (human α-thrombin; peptide 2.60E-01 uM): 14.6 and 25.5 and 20.4 | Slope normalized to DMSO (proteolytic substrate cleavage over time) (human α-thrombin; peptide 3.18E-05 uM): 103.9 and 99.1 and 101.2 | Slope normalized to DMSO (proteolytic substrate cleavage over time) (human α-thrombin; peptide 3.26E-02 uM): 46.1 and 40.2 and 49.8 | Slope normalized to DMSO (proteolytic substrate cleavage over time) (human α-thrombin; peptide 4.07E-03 uM): 82.6 and 77.6 and 83.2 | Slope normalized to DMSO (proteolytic substrate cleavage over time) (human α-thrombin; peptide 5.09E-04 uM): 88.5 and 86.7 and 91.9 | Slope normalized to DMSO (proteolytic substrate cleavage over time) (human α-thrombin; peptide 5.21E-01 uM): 17.1 and 15.0 | Slope normalized to DMSO (proteolytic substrate cleavage over time) (human α-thrombin; peptide 6.36E-05 uM): 96.5 and 103.5 and 97.9 | Slope normalized to DMSO (proteolytic substrate cleavage over time) (human α-thrombin; peptide 6.51E-02 uM): 35.9 and 37.8 and 41.0 | Slope normalized to DMSO (proteolytic substrate cleavage over time) (human α-thrombin; peptide 7.95E-06 uM): 100.7 and 95.5 and 98.4 | Slope normalized to DMSO (proteolytic substrate cleavage over time) (human α-thrombin; peptide 8.14E-03 uM): 73.2 and 59.3 and 66.6 | IC50 (human α-thrombin; single replicates R1-R3, read-out: IC50, human alpha thrombin inhibition): 30.2 nM and 20 nM and 31.5 nM | Ki (human α-thrombin; single replicates R1-R3, read-out: Ki, human alpha thrombin inhibition): 23.3 nM (2×) and 15.4 nM (2×) and 24.2 nM (2×) | Ki (rat α-thrombin; average of R1-R3, read-out: Ki Average, rat alpha thrombin inhibition): 6.1 nM | Slope normalized to DMSO (proteolytic substrate cleavage over time) (rat α-thrombin; peptide 1.02E-03 uM): 78.7 and 76.8 and 72.0 | Slope normalized to DMSO (proteolytic substrate cleavage over time) (rat α-thrombin; peptide 1.04E+00 uM): 7.3 and 7.7 and 6.8 | Slope normalized to DMSO (proteolytic substrate cleavage over time) (rat α-thrombin; peptide 1.27E-04 uM): 95.1 and 95.2 and 91.8 | Slope normalized to DMSO (proteolytic substrate cleavage over time) (rat α-thrombin; peptide 1.30E-01 uM): 20.8 and 21.8 and 17.8 | Slope normalized to DMSO (proteolytic substrate cleavage over time) (rat α-thrombin; peptide 1.59E-05 uM): 100.8 and 100.5 and 95.6 | Slope normalized to DMSO (proteolytic substrate cleavage over time) (rat α-thrombin; peptide 1.63E-02 uM): 48.6 and 45.6 and 41.9 | Slope normalized to DMSO (proteolytic substrate cleavage over time) (rat α-thrombin; peptide 1.67E+01 uM): 5.6 and 6.1 and 3.4 | Slope normalized to DMSO (proteolytic substrate cleavage over time) (rat α-thrombin; peptide 2.03E-03 uM): 77.5 and 75.6 and 71.7 | Slope normalized to DMSO (proteolytic substrate cleavage over time) (rat α-thrombin; peptide 2.08E+00 uM): 5.5 and 7.4 and 5.0 | Slope normalized to DMSO (proteolytic substrate cleavage over time) (rat α-thrombin; peptide 2.54E-04 uM): 90.6 and 89.3 and 85.2 | Slope normalized to DMSO (proteolytic substrate cleavage over time) (rat α-thrombin; peptide 2.60E-01 uM): 14.5 and 13.9 and 10.9 | Slope normalized to DMSO (proteolytic substrate cleavage over time) (rat α-thrombin; peptide 3.18E-05 uM): 98.5 and 99.4 and 94.0 | Slope normalized to DMSO (proteolytic substrate cleavage over time) (rat α-thrombin; peptide 3.26E-02 uM): 34.9 (2×) and 30.9 | Slope normalized to DMSO (proteolytic substrate cleavage over time) (rat α-thrombin; peptide 3.33E+01 uM): 5.6 and 5.2 and 4.6 | Slope normalized to DMSO (proteolytic substrate cleavage over time) (rat α-thrombin; peptide 4.07E-03 uM): 74.5 and 73.2 and 65.7 | Slope normalized to DMSO (proteolytic substrate cleavage over time) (rat α-thrombin; peptide 4.17E+00 uM): 6.0 and 6.5 and 4.6 | Slope normalized to DMSO (proteolytic substrate cleavage over time) (rat α-thrombin; peptide 5.09E-04 uM): 86.5 and 86.6 and 79.6 | Slope normalized to DMSO (proteolytic substrate cleavage over time) (rat α-thrombin; peptide 5.21E-01 uM): 8.9 and 10.7 and 8.6 | Slope normalized to DMSO (proteolytic substrate cleavage over time) (rat α-thrombin; peptide 6.36E-05 uM): 95.0 and 93.8 and 92.2 | Slope normalized to DMSO (proteolytic substrate cleavage over time) (rat α-thrombin; peptide 6.51E-02 uM): 29.2 and 28.9 and 23.7 | Slope normalized to DMSO (proteolytic substrate cleavage over time) (rat α-thrombin; peptide 6.67E+01 uM): 6.0 and 6.3 and 4.0 | Slope normalized to DMSO (proteolytic substrate cleavage over time) (rat α-thrombin; peptide 7.95E-06 uM): 103.6 and 102.5 and 98.1 | Slope normalized to DMSO (proteolytic substrate cleavage over time) (rat α-thrombin; peptide 8.14E-03 uM): 62.2 and 57.8 and 53.3 | Slope normalized to DMSO (proteolytic substrate cleavage over time) (rat α-thrombin; peptide 8.33E+00 uM): 4.9 and 6.7 and 5.0 | IC50 (rat α-thrombin; single replicates R1-R3, read-out: IC50, rat alpha thrombin inhibition): 13 nM and 10.8 nM and 9.19 nM | Ki (rat α-thrombin; single replicates R1-R3, read-out: Ki, rat alpha thrombin inhibition): 7.18 nM and 6.01 nM (2×) and 5.09 nM (2×) and 7.19 nM | SGF stability, Residual peptide Average (porcine pepsin; after 8 h vs 0 h (TIC), average of R1-R3): 99.21 | SGF stability, Residual peptide (porcine pepsin; after 8 h vs 0 h (TIC), single replicates R1-R3): 107.50 and 92.24 and 97.90 | remaining at 8 h (porcine pepsin; simulated gi fluid, 8 h, 37 °C, pH 1.2, read-out: Proteolytic stability: SGF (8 h) % remaining): 99 ± 8% | remaining at 8 h [1]: 63 ± 6% | SIF stability, Residual peptide Average (porcine pancreatin; average of R1-R3): 62.79 | SIF stability, Residual peptide (porcine pancreatin; single replicates R1-R3): 66.10 and 55.58 and 66.70 | PAMPA permeability: % permeability ([2]; 50 μM, 12–18 h, acceptor concentration relative to equilibrium): 37 ± 1% | Papp at 50 μM ([2]; PAMPA, pH 7.4): 4.57 ×10⁻⁶ cm/s | Permeability% Average ([2]; top well sample vs theoretical equilibrium sample (TIC), average of R1-R3): 37.0% | Permeability% ([2]; top well sample vs theoretical equilibrium sample (TIC), single replicates R1-R3): 36.96% and 38.34% and 35.81%
